Values joined by “and” are separate entries in the source; they are usually repeats but may differ in a detail not shown here. Equal values may be shown once.
Key:
murine free Hb = murine free Hb (Mus musculus, UniProt P01942+P02088); test: P50 of murine free Hb after incubation with compound (HEMOX analyzer); format: biochemical; conditions: for P50 (Torr) Hb + compound / P50 increase (%) + SD: murine free Hb, compound solution 60 mM
Method: (§1) For the in vitro experiments, ITPP was dissolved in deionized water, pH was adjusted at pH 7 and, for incubation with whole blood, the osmolarity of the ITPP solutions was adjusted with glucose to 270-297 mOsM. Mixtures of hemoglobin and ITPP were measured with a HEMOX analyzer (PD Marketing, London) immediately after mixing. Red blood cells were incubated with ITPP for 1 hour at 37° C. Following incubation, the cells were washed 3 times with Bis-Tris-buffer (pH=7.0) and then used for P50 measurement.

murine whole blood = test: P50 of murine whole blood after incubation with compound; format: cell-based
Method: as §1

circulating RBCs = test: P50 of circulating RBCs after oral ITPP in drinking water; format: in vivo; conditions: drinking water 20 g/L (0.27 mM, pH ~7.0) ad libitum
Method: ITPP was dissolved in drinking water at a 20 g/L-concentration (0.27 mM, pH ˜7.0.) and offered for drinking ad libitum.

[1] = system: VEGF mRNA in Lewis Lung carcinoma (LLC) tumors; test: VEGF mRNA (RT-PCR) in Lewis Lung carcinoma tumors of ITPP drinking mice; format: in vivo, C57BL/6 mice; conditions: LLC tumor-bearing mice, ITPP 20 g/L orally, day 9, versus controls
Method: ITPP, when administered orally, intravenously, or intraperitoneally, inhibits angiogenesis in growing tumors by enhancing the PO2 in the forming tumors. […] Thereafter, all animals received 1×10^6 Lewis Lung carcinoma (LLC) cells, injected in the dorsal cavity. At different time points, the VEGF mRNA were assayed by RT-PCR in the tumors growing in both groups of mice.
There was a difference in the level of mRNA of the VEGF gene in both groups. […] The RT-PCR agarose gel assay of VEGF mRNAs from tumor tissue taken from 2 mice each on day 15 after inoculation of LLC cells (track 1: controls, track 2: ITPP treated animals) and day 30 after inoculation (track 3: control animals, track 4: ITPP treated animals).
Quantification of the gel assays indicated a reduction by a factor of 10,000 of the amount of VEGF mRNAs detected in the tumors of animals having received ITPP, at day 9 and then, while differences remain between treated and untreated animals, they tend to decrease.

[2] = system: hypoxic endothelial cells; test: ITPP-Ca/Na loaded red blood cells on hypoxic endothelial cells in vitro; format: cell-based
hemoglobin [3] = biological target: T1, hemoglobin (Homo sapiens, UniProt P68871+P69905); conditions: higher than DPG; cited from earlier work
human whole blood = test: P50 of human whole blood after incubation with compound; format: cell-based; conditions: for P50 (Torr) compound + whole blood / P50 increase (%) + SD: human whole blood
Method: as §1
(§2) ITPP-Ca4Na acts as a powerful effector of hemoglobin shifting the oxygen fixation curves to the right, with respect to the natural effector bisphosphoglycerate. […] In FIG. 6, hemoglobin is incubated (at concentrations up to 100 mM final) with ITPP Ca4Na, for 1 hour at 37° C. and measured by TCS-hemox analyzer for p50 shifts. In FIG. 7, whole human blood was incubated (at concentrations up to 120 mM final) with ITPP Ca4Na, for 1 hour 37° C. and measured by TCS-hemox analyzer for p50 shifts.

human free Hb = human free Hb (Homo sapiens, UniProt P68871+P69905); test: P50 of human free Hb after incubation with compound (HEMOX analyzer); format: biochemical; conditions: compound solution 60 mM
Method: as §1

hemoglobin [4] = biological target: T1, hemoglobin; test: p50 shift of hemoglobin incubated with ITPP Ca4Na (TCS-hemox analyzer); format: biochemical; conditions: up to 100 mM final, 1 hour at 37° C.
Method: as §2

porcine free Hb = porcine free Hb (Sus scrofa, UniProt P01965+P02067); test: P50 of porcine free Hb after incubation with compound (HEMOX analyzer); format: biochemical; conditions: compound solution 60 mM
Method: as §1

porcine whole blood = test: P50 of porcine whole blood after incubation with compound; format: cell-based; conditions: compound 60 mM
Method: as §1

human free Hb, sequence (P69905 2-142 limits assumed): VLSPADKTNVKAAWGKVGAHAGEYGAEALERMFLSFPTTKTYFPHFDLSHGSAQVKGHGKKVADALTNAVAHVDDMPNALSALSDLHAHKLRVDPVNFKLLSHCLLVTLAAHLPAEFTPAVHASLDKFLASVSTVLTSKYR
human free Hb, sequence (P68871 2-147 limits assumed): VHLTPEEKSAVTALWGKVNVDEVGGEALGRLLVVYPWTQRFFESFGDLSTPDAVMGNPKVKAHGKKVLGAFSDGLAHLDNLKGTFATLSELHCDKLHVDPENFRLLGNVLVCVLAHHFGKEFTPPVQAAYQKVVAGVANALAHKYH
murine free Hb, sequence (P01942 2-142 limits assumed): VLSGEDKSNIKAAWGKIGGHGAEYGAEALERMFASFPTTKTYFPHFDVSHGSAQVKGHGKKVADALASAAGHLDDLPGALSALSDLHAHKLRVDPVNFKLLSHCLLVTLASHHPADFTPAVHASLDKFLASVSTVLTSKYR
murine free Hb, sequence (P02088 2-147 limits assumed): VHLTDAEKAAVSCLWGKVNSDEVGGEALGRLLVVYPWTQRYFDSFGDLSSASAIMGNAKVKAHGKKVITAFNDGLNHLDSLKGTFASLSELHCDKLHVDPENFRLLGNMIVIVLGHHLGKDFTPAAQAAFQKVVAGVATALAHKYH
porcine free Hb, sequence (P01965 whole entry): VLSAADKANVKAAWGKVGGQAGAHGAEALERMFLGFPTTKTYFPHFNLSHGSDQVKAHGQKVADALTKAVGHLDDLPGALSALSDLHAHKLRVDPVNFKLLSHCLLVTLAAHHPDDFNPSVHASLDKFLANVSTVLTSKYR
porcine free Hb, sequence (P02067 2-147 limits assumed): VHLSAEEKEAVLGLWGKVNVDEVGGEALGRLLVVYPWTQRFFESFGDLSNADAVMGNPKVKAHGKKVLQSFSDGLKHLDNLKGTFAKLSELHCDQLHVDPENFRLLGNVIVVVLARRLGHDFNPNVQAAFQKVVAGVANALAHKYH
T1 sequence (P69905 2-142 limits assumed): as the sequence (P69905 2-142 limits assumed) above
T1 sequence (P68871 2-147 limits assumed): as the sequence (P68871 2-147 limits assumed) above

Compound | P50 (Torr) Hb + compound (murine free Hb) | P50 increase (%) + SD (murine free Hb) | P50 (Torr) compound + whole blood (murine whole blood; compound 30 mM) | P50 increase (%) + SD (murine whole blood; compound 30 mM) | other results
C1CNCCN1.C1CNCCN1.C1CNCCN1.O=P1(O)OP(=O)(O)O[C@H]2[C@H](O1)[C@@H]1OP(=O)(O)OP(=O)(O)O[C@@H]1[C@H]1OP(=O)(O)OP(=O)(O)O[C@H]21 (racemic) [Compound 14, tripiperazinium salt of ITPP] | 82.9 Torr | 254 ± 49% | 41.9 Torr | 7 ± 1% | –
O=P1(O)OC2C3OP(=O)(O)OP(=O)(O)OC3C3OP(=O)(O)OP(=O)(O)OC3C2OP(=O)(O)O1 (stereo not drawn) [ITPP, inositol-tripyrophosphate] | – | – | – | – | P50 shift to higher PO2 (murine free Hb; murine hemoglobin, maximum observed): up to 250%; shift of the P50 value of circulating RBCs (circulating RBCs): significant shift; reduction factor of the amount of VEGF mRNAs detected in the tumors [1]: 10,000; P50 shift to higher PO2 (murine whole blood; maximum observed): up to 40%
NC1CCCCCC1.NC1CCCCCC1.NC1CCCCCC1.NC1CCCCCC1.NC1CCCCCC1.NC1CCCCCC1.O=P1(O)OP(=O)(O)O[C@H]2[C@H](O1)[C@@H]1OP(=O)(O)OP(=O)(O)O[C@@H]1[C@H]1OP(=O)(O)OP(=O)(O)O[C@H]21 (racemic) [Compound 11, cycloheptyl ammonium salt of ITPP] | 43.8 Torr | 71 ± 3% | 45.5 Torr | 20 ± 2% | –
O=P1([O-])OP(=O)([O-])O[C@H]2[C@H](O1)[C@@H]1OP(=O)([O-])OP(=O)([O-])O[C@@H]1[C@H]1OP(=O)([O-])OP(=O)([O-])O[C@H]21.[Ca+2].[Na+].[Na+].[Na+].[Na+] (racemic) [ITPP-Ca/Na, mixed calcium/sodium salt of inositol-tripyrophosphate] | – | – | – | – | effect on HIF-1 induction, VEGF and angiogenesis (FIG. 1) [2]: suppression of HIF-1 induction, VEGF and angiogenesis
piperazinium salt of ITPP [Compound 13] | 67.7 Torr | 189 ± 43% | 41.7 Torr | 10 ± 2% | –
O=P(O)(O)O[C@H]1[C@H](OP(=O)(O)O)[C@@H](OP(=O)(O)O)[C@H](OP(=O)(O)O)[C@@H](OP(=O)(O)O)[C@H]1OP(=O)(O)O [IHP, inositol hexaphosphate] | – | – | – | – | affinity to hemoglobin relative to DPG (hemoglobin [3]): 1000 fold
O=P1(O)OP(=O)(O)O[C@H]2[C@H](O1)[C@@H]1OP(=O)(O)OP(=O)(O)O[C@@H]1[C@H]1OP(=O)(O)OP(=O)(O)O[C@H]21.c1ccncc1.c1ccncc1.c1ccncc1.c1ccncc1.c1ccncc1.c1ccncc1 (racemic) [Compound 4, pyridinium salt of ITPP] | 50.0 Torr | 100 ± 18% | 42.7 Torr | 13 ± 2% | P50 (Torr) compound + whole blood (human whole blood; compound 30 mM): 24.3 Torr; P50 increase (%) + SD (human whole blood; compound 30 mM): 10 ± 4%; P50 (Torr) Hb + compound (human free Hb): 31.6 Torr; P50 increase (%) + SD (human free Hb): 107 ± 22%
O=P1([O-])OC2C3OP(=O)([O-])OP(=O)([O-])OC3C3OP(=O)([O-])OP(=O)([O-])OC3C2OP(=O)([O-])O1.[Ca+2].[Na+].[Na+].[Na+].[Na+] (stereo not drawn) [ITPP-Ca4Na, monocalcium tetrasodium myo-inositol 1,6:2,3:4,5 trispyrophosphate] | – | – | – | – | p50 values of whole human blood (FIG. 7) (human whole blood; up to 120 mM final, 1 hour 37° C.): increase with concentration; p50 values of hemoglobin (FIG. 6) (hemoglobin [4]): increase with concentration
CN(C)C1CCCCC1.CN(C)C1CCCCC1.CN(C)C1CCCCC1.CN(C)C1CCCCC1.CN(C)C1CCCCC1.CN(C)C1CCCCC1.O=P1(O)OP(=O)(O)O[C@H]2[C@H](O1)[C@@H]1OP(=O)(O)OP(=O)(O)O[C@@H]1[C@H]1OP(=O)(O)OP(=O)(O)O[C@H]21 (racemic) [Compound 7, N,N-dimethylcyclohexyl ammonium salt of ITPP] | 45.1 Torr | 81 ± 15% | 52.0 Torr | 30 ± 3% | –
NC1CCCCCCC1.NC1CCCCCCC1.NC1CCCCCCC1.NC1CCCCCCC1.NC1CCCCCCC1.NC1CCCCCCC1.O=P1(O)OP(=O)(O)O[C@H]2[C@H](O1)[C@@H]1OP(=O)(O)OP(=O)(O)O[C@@H]1[C@H]1OP(=O)(O)OP(=O)(O)O[C@H]21 (racemic) [Compound 12, cyclooctyl ammonium salt of ITPP] | 30.6 Torr | 23 ± 5% | 41.3 Torr | 9 ± 1% | –
O=P1([O-])OP(=O)([O-])O[C@H]2[C@H](O1)[C@@H]1OP(=O)([O-])OP(=O)([O-])O[C@@H]1[C@H]1OP(=O)([O-])OP(=O)([O-])O[C@H]21.[Ca+2].[Ca+2].[Ca+2] (racemic) [Compound 15, myo-inositol tripyrophosphate-calcium salt] | 61.9 Torr | 130 ± 30% | 42.3 Torr | 8 ± 2% | P50 (Torr) compound + whole blood (human whole blood; compound 30 mM): 31.0 Torr; P50 increase (%) + SD (human whole blood; compound 30 mM): 25% and 25 ± 3%; P50 (Torr) compound + whole blood (murine whole blood; compound 60 mM): 55.3 Torr; P50 (Torr) Hb + compound (human free Hb): 33.1 Torr; P50 increase (%) + SD (human free Hb): 170% and 170 ± 32%
O=P1([O-])OP(=O)([O-])O[C@H]2[C@H](O1)[C@@H]1OP(=O)([O-])OP(=O)([O-])O[C@@H]1[C@H]1OP(=O)([O-])OP(=O)([O-])O[C@H]21.[Na+].[Na+].[Na+].[Na+].[Na+].[Na+] (racemic) [Compound 5, myo-inositol tripyrophosphate-sodium salt] | 69.7 Torr | 180 ± 25% | – | – | P50 (Torr) Hb + compound (porcine free Hb): 68.1 Torr; P50 increase (%) + SD (porcine free Hb): 209 ± 39%; P50 (Torr) compound + whole blood (human whole blood; compound 60 mM): 30.8 Torr; P50 (Torr) compound + whole blood (murine whole blood; compound 4 mM): 47.4 Torr; P50 (Torr) Hb + compound (human free Hb): 49.8 Torr; P50 increase (%) + SD (human free Hb): 225 ± 19%; P50 (Torr) compound + whole blood (porcine whole blood): 44.2 Torr
